# In patent US9738634B2, “Heterocyclic amide compound and herbicide” (SYNGENTA PARTICIPATIONS AG, priority 2013, dated 2017):
# Legend:
# Assay type in all cases: in vivo
# rapeseed = assay: Test Example 3: soil treatment, effect on crop; g: rapeseed; conditions: soil treatment, treatment dosage 80 g/ha
# From the text: (§1) Weedkilling Efficacy Test Through Soil Treatment
# (§2) Sterilized diluvial soil was introduced into 21 cm long, 13 cm wide, 7 cm deep plastic boxes, and seeds of crabgrass, green foxtail, barnyard grass, wild oat, black-grass, Italian ryegrass, common wind-grass, Indian mallow, redroot pigweed, fig-leafed goosefoot, chickweed, catchweed, birds-eye speedwell, corn, soybean, rice, wheat, beet and rapeseed were each spot-sown, and covered with about 1.5 cm of soil. Next, emulsions of compounds of the present invention prepared according to compounding example 2 were diluted with water to give the specified dosages, and applied uniformly onto the soil surface with a small sprayer. The plants were grown by placing the plastic boxes in a greenhouse at 25 to 30° C., and 3 weeks after the pesticide treatment the effect on each type of plant was investigated on the basis of the assessment criteria of test example 1.
# (§3) A: barnyard grass, B: bulrush, C: oval-leafed pondweed, D: crabgrass, E: green foxtail, F: barnyard grass, G: wild oat, H: black-grass, I: Italian ryegrass, J: common wind-grass, K: Indian mallow, L: redroot pigweed, M: fig-leafed goosefoot, N: chickweed, O: catchweed, p: birds-eye speedwell, a: transplanted rice, b: directly sown rice, c: corn, d: soybean, e: wheat, f: beet, g: rapeseed
# (§4) Further, pesticide dosage (g/ha) indicates the concentration regulated such that treatment was with only the stated number of grams (g), when calculated per hectare (ha).
# wheat [1] = assay: Test Example 3: soil treatment, effect on crop; e: wheat; conditions: for e: wheat, effect on crop grade: soil treatment, treatment dosage 80 g/ha
# In short: (§5)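 Crop and weed responses were judged three weeks after a uniform surface spray of the water-diluted emulsion at the given g/ha rate. Seeds sat beneath about 1.5 cm of sterilized diluvial soil, and boxes stood in a greenhouse at 25 to 30° C.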
# common wind-grass = assay: Test Example 3: weedkilling efficacy through soil treatment; J: common wind-grass; conditions: soil treatment, treatment dosage 80 g/ha
# From the text: as §1, §2, §3, §4
# Italian ryegrass [2] = assay: Test Example 3: weedkilling efficacy through soil treatment; I: Italian ryegrass; conditions: for I: Italian ryegrass, weedkilling efficacy grade: soil treatment, treatment dosage 80 g/ha
# In short: as §5
# black-grass [3] = assay: Test Example 3: weedkilling efficacy through soil treatment; H: black-grass; conditions: for H: black-grass, weedkilling efficacy grade: soil treatment, treatment dosage 80 g/ha
# In short: as §5
# green foxtail [4] = assay: Test Example 4: weedkilling efficacy by foliar treatment; E: green foxtail; conditions: treatment dosage 315 g/ha
# Method: (§6) Testing of Weedkilling Efficacy by Foliar Treatment
# (§7) Sterilized diluvial soil was introduced into 21 cm long, 13 cm wide, 7 cm deep plastic boxes, and seeds of crabgrass, green foxtail, barnyard grass, wild oat, black-grass, Italian ryegrass, common wind-grass, Indian mallow, redroot pigweed, fig-leafed goosefoot, chickweed, catchweed, birds-eye speedwell, corn, soybean, rice, wheat, beet and rapeseed were each spot-sown, and covered with about 1.5 cm of soil, then the plants were grown in a greenhouse at 25 to 30° C.
# (§8) After they had grown for 14 days, emulsions of compounds of the present invention prepared according to compounding example 2 were diluted with water to give the specified dosages, and applied uniformly onto the stem and leaf parts with a small sprayer. 3 weeks after the pesticide treatment the effect on each type of plant was investigated on the basis of the assessment criteria of test example 1.
# as §3, §4
# catchweed = assay: Test Example 4: weedkilling efficacy by foliar treatment; O: catchweed; conditions: treatment dosage 315 g/ha
# Method: as §6, §7, §8, §3, §4
# redroot pigweed [5] = assay: Test Example 3: weedkilling efficacy through soil treatment; L: redroot pigweed; conditions: treatment dosage 315 g/ha
# In short: as §5
# soybean [6] = assay: Test Example 3: soil treatment, effect on crop; d: soybean; conditions: treatment dosage 315 g/ha
# In short: as §5
# bulrush [7] = assay: Test Example 2: weedkilling efficacy, growth period weed treatment in the submerged state; B: bulrush; conditions: treatment dosage 252 g/ha
# In short: (§9)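 Barnyard grass, bulrush and oval-leafed pondweed sown in alluvial soil under 4 cm flooding, greenhouse 25 to 30° C. At 1-2 leaf stage, water-diluted emulsion applied to the water surface at stated g/ha dosages; effects scored 3 weeks later.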
# barnyard grass [8] = assay: Test Example 2: weedkilling efficacy, growth period weed treatment in the submerged state; A: barnyard grass; conditions: treatment dosage 252 g/ha
# In short: as §9
# crabgrass [9] = assay: Test Example 3: weedkilling efficacy through soil treatment; D: crabgrass; conditions: treatment dosage 315 g/ha
# In short: as §5
# corn [10] = assay: Test Example 3: soil treatment, effect on crop; c: corn; conditions: treatment dosage 315 g/ha
# In short: as §5
# wheat [11] = assay: Test Example 4: foliar treatment, effect on crop; e: wheat; conditions: treatment dosage 315 g/ha
# Method: as §6, §7, §8, §3, §4
# directly sown rice [12] = assay: Test Example 4: foliar treatment, effect on crop; b: directly sown rice; conditions: treatment dosage 315 g/ha
# Method: as §6, §7, §8, §3, §4
# redroot pigweed [13] = assay: Test Example 4: weedkilling efficacy by foliar treatment; L: redroot pigweed; conditions: treatment dosage 315 g/ha
# Method: as §6, §7, §8, §3, §4
# crabgrass [14] = assay: Test Example 4: weedkilling efficacy by foliar treatment; D: crabgrass; conditions: treatment dosage 315 g/ha
# Method: as §6, §7, §8, §3, §4
# beet [15] = assay: Test Example 4: foliar treatment, effect on crop; f: beet; conditions: treatment dosage 315 g/ha
# Method: as §6, §7, §8, §3, §4
# Indian mallow [16] = assay: Test Example 3: weedkilling efficacy through soil treatment; K: Indian mallow; conditions: treatment dosage 315 g/ha
# In short: as §5
# transplanted rice = assay: Test Example 1: preemergent weed treatment in the submerged state, effect on crop; a: transplanted rice; conditions: treatment dosage 252 g/ha
# In short: (§10)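 Pots of alluvial soil flooded 4 cm deep, sown with barnyard grass, bulrush and oval-leafed pondweed and transplanted with 2.5-leaf rice. Emulsified compound applied to the water surface on sowing day at stated g/ha; greenhouse 25–30 °C, effects assessed 3 weeks after treatment.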
# soybean [17] = assay: Test Example 4: foliar treatment, effect on crop; d: soybean; conditions: treatment dosage 315 g/ha
# Method: as §6, §7, §8, §3, §4
# directly sown rice [18] = assay: Test Example 3: soil treatment, effect on crop; b: directly sown rice; conditions: treatment dosage 315 g/ha
# In short: as §5
# birds-eye speedwell [19] = assay: Test Example 3: weedkilling efficacy through soil treatment; p: birds-eye speedwell; conditions: treatment dosage 315 g/ha
# In short: as §5
# Italian ryegrass [20] = assay: Test Example 4: weedkilling efficacy by foliar treatment; I: Italian ryegrass; conditions: treatment dosage 315 g/ha
# Method: as §6, §7, §8, §3, §4
# green foxtail [21] = assay: Test Example 3: weedkilling efficacy through soil treatment; E: green foxtail; conditions: treatment dosage 315 g/ha
# In short: as §5
# chickweed [22] = assay: Test Example 4: weedkilling efficacy by foliar treatment; N: chickweed; conditions: treatment dosage 315 g/ha
# Method: as §6, §7, §8, §3, §4
# bulrush [23] = assay: Test Example 1: weedkilling efficacy, preemergent weed treatment in the submerged state; B: bulrush; conditions: treatment dosage 252 g/ha
# In short: as §10
# Indian mallow [24] = assay: Test Example 4: weedkilling efficacy by foliar treatment; K: Indian mallow; conditions: treatment dosage 315 g/ha
# Method: as §6, §7, §8, §3, §4
# oval-leafed pondweed [25] = assay: Test Example 2: weedkilling efficacy, growth period weed treatment in the submerged state; C: oval-leafed pondweed; conditions: treatment dosage 252 g/ha
# In short: as §9
# oval-leafed pondweed [26] = assay: Test Example 1: weedkilling efficacy, preemergent weed treatment in the submerged state; C: oval-leafed pondweed; conditions: treatment dosage 252 g/ha
# In short: as §10
# barnyard grass [27] = assay: Test Example 1: weedkilling efficacy, preemergent weed treatment in the submerged state; A: barnyard grass; conditions: treatment dosage 252 g/ha
# In short: as §10
# black-grass [28] = assay: Test Example 4: weedkilling efficacy by foliar treatment; H: black-grass; conditions: treatment dosage 315 g/ha
# Method: as §6, §7, §8, §3, §4
# corn [29] = assay: Test Example 4: foliar treatment, effect on crop; c: corn; conditions: treatment dosage 315 g/ha
# Method: as §6, §7, §8, §3, §4
# fig-leafed goosefoot = assay: Test Example 4: weedkilling efficacy by foliar treatment; M: fig-leafed goosefoot; conditions: treatment dosage 315 g/ha
# Method: as §6, §7, §8, §3, §4
# chickweed [30] = assay: Test Example 3: weedkilling efficacy through soil treatment; N: chickweed; conditions: treatment dosage 315 g/ha
# In short: as §5
# beet [31] = assay: Test Example 3: soil treatment, effect on crop; f: beet; conditions: treatment dosage 315 g/ha
# In short: as §5
# birds-eye speedwell [32] = assay: Test Example 4: weedkilling efficacy by foliar treatment; p: birds-eye speedwell; conditions: treatment dosage 315 g/ha
# Method: as §6, §7, §8, §3, §4
smiles,measurement,setting,value
CC(C)(C(=O)Nc1cc(Br)ccn1)N1COCN(c2ccccc2)C1=O [A-2-08],"g: rapeseed, effect on crop grade",rapeseed,0 (weed kill ratio 5% or less (practically no effect))
same,"e: wheat, effect on crop grade",wheat [1],0 (weed kill ratio 5% or less (practically no effect))
same,"J: common wind-grass, weedkilling efficacy grade",common wind-grass,"5 (weed kill ratio 90% or more, (practically complete withering))"
same,"I: Italian ryegrass, weedkilling efficacy grade",Italian ryegrass [2],"5 (weed kill ratio 90% or more, (practically complete withering))"
same,"H: black-grass, weedkilling efficacy grade",black-grass [3],"5 (weed kill ratio 90% or more, (practically complete withering))"
CC(C)(C(=O)Nc1cc(C(F)F)cc(Cl)n1)N1COCN(c2ccccc2)C1=O [A-2-27],"g: rapeseed, effect on crop grade",rapeseed,"2 (weed kill ratio 20% or more, less than 40%)"
same,"e: wheat, effect on crop grade",wheat [1],"1 (weed kill ratio 5% or more, less than 20%)"
same,"J: common wind-grass, weedkilling efficacy grade",common wind-grass,"5 (weed kill ratio 90% or more, (practically complete withering))"
same,"I: Italian ryegrass, weedkilling efficacy grade",Italian ryegrass [2],"5 (weed kill ratio 90% or more, (practically complete withering))"
same,"H: black-grass, weedkilling efficacy grade",black-grass [3],"5 (weed kill ratio 90% or more, (practically complete withering))"
COc1nsc(NC(=O)C(C)(C)N2COC(C)=C(c3ccccc3)C2=O)n1 [B-1-15],E (green foxtail) weedkilling efficacy grade,green foxtail [4],"5 (weed kill ratio 90% or more, (practically complete withering))"
same,O (catchweed) weedkilling efficacy grade,catchweed,"4 (weed kill ratio 70% or more, less than 90%)"
same,L (redroot pigweed) weedkilling efficacy grade,redroot pigweed [5],"5 (weed kill ratio 90% or more, (practically complete withering))"
same,d (soybean) effect on crop grade,soybean [6],0 (weed kill ratio 5% or less (practically no effect))
same,B (bulrush) weedkilling efficacy grade,bulrush [7],"5 (weed kill ratio 90% or more, (practically complete withering))"
same,A (barnyard grass) weedkilling efficacy grade,barnyard grass [8],"4 (weed kill ratio 70% or more, less than 90%)"
same,D (crabgrass) weedkilling efficacy grade,crabgrass [9],"5 (weed kill ratio 90% or more, (practically complete withering))"
same,c (corn) effect on crop grade,corn [10],0 (weed kill ratio 5% or less (practically no effect))
same,e (wheat) effect on crop grade,wheat [11],"3 (weed kill ratio 40% or more, less than 70%)"
same,b (directly sown rice) effect on crop grade,directly sown rice [12],"4 (weed kill ratio 70% or more, less than 90%)"
same,e (wheat) effect on crop grade,wheat [1]; treatment dosage 315 g/ha,"4 (weed kill ratio 70% or more, less than 90%)"
same,L (redroot pigweed) weedkilling efficacy grade,redroot pigweed [13],"5 (weed kill ratio 90% or more, (practically complete withering))"
same,D (crabgrass) weedkilling efficacy grade,crabgrass [14],"5 (weed kill ratio 90% or more, (practically complete withering))"
same,I (Italian ryegrass) weedkilling efficacy grade,Italian ryegrass [2]; treatment dosage 315 g/ha,"5 (weed kill ratio 90% or more, (practically complete withering))"
same,f (beet) effect on crop grade,beet [15],"4 (weed kill ratio 70% or more, less than 90%)"
same,K (Indian mallow) weedkilling efficacy grade,Indian mallow [16],"4 (weed kill ratio 70% or more, less than 90%)"
same,a (transplanted rice) effect on crop grade,transplanted rice,0 (weed kill ratio 5% or less (practically no effect))
same,d (soybean) effect on crop grade,soybean [17],"4 (weed kill ratio 70% or more, less than 90%)"
same,b (directly sown rice) effect on crop grade,directly sown rice [18],"5 (weed kill ratio 90% or more, (practically complete withering))"
same,P (birds-eye speedwell) weedkilling efficacy grade,birds-eye speedwell [19],"5 (weed kill ratio 90% or more, (practically complete withering))"
same,I (Italian ryegrass) weedkilling efficacy grade,Italian ryegrass [20],"4 (weed kill ratio 70% or more, less than 90%)"
same,E (green foxtail) weedkilling efficacy grade,green foxtail [21],"5 (weed kill ratio 90% or more, (practically complete withering))"
same,N (chickweed) weedkilling efficacy grade,chickweed [22],"4 (weed kill ratio 70% or more, less than 90%)"
same,B (bulrush) weedkilling efficacy grade,bulrush [23],"5 (weed kill ratio 90% or more, (practically complete withering))"
same,K (Indian mallow) weedkilling efficacy grade,Indian mallow [24],"5 (weed kill ratio 90% or more, (practically complete withering))"
same,C (oval-leafed pondweed) weedkilling efficacy grade,oval-leafed pondweed [25],"5 (weed kill ratio 90% or more, (practically complete withering))"
same,C (oval-leafed pondweed) weedkilling efficacy grade,oval-leafed pondweed [26],"5 (weed kill ratio 90% or more, (practically complete withering))"
same,A (barnyard grass) weedkilling efficacy grade,barnyard grass [27],"5 (weed kill ratio 90% or more, (practically complete withering))"
same,H (black-grass) weedkilling efficacy grade,black-grass [3]; treatment dosage 315 g/ha,"5 (weed kill ratio 90% or more, (practically complete withering))"
same,H (black-grass) weedkilling efficacy grade,black-grass [28],"5 (weed kill ratio 90% or more, (practically complete withering))"
same,c (corn) effect on crop grade,corn [29],"4 (weed kill ratio 70% or more, less than 90%)"
same,M (fig-leafed goosefoot) weedkilling efficacy grade,fig-leafed goosefoot,"3 (weed kill ratio 40% or more, less than 70%)"
same,N (chickweed) weedkilling efficacy grade,chickweed [30],"5 (weed kill ratio 90% or more, (practically complete withering))"
same,f (beet) effect on crop grade,beet [31],"4 (weed kill ratio 70% or more, less than 90%)"
same,P (birds-eye speedwell) weedkilling efficacy grade,birds-eye speedwell [32],"4 (weed kill ratio 70% or more, less than 90%)"
